Experimental data as given in ChEMBL document CHEMBL1156482, “Molecular mechanism of action of monocyclam versus bicyclam non-peptide antagonists in the CXCR4 chemokine receptor” (J Biol Chem, 2007).

Assays:
[1] = test system: C-X-C chemokine receptor type 4 (Homo sapiens), P61073 [A175F]; assay: (§1) Antagonist activity at human CXCR4 A175F mutant expressed in COS7 cells coexpressing G protein Gqi4myr assessed as inhibition of CXCL12-induced phosphatidylinositol turnover; format: functional, cell-based; conditions: COS-7
[2] = target: C-X-C chemokine receptor type 4 (Homo sapiens, UniProt P61073, A175F); assay: as §1; format: functional, cell-based, COS-7
[3] = target: C-X-C chemokine receptor type 4 (Homo sapiens, UniProt P61073, D171N); assay: (§2) Antagonist activity at human CXCR4 D171N mutant expressed in COS7 cells coexpressing G protein Gqi4myr assessed as inhibition of CXCL12-induced phosphatidylinositol turnover; format: functional, cell-based, COS-7
[4] = test system: C-X-C chemokine receptor type 4 (Homo sapiens), P61073 [D171N]; assay: as §2; format: functional, cell-based; conditions: COS-7
[5] = test system: C-X-C chemokine receptor type 4 (Homo sapiens), P61073 [D262N]; assay: (§3) Antagonist activity at human CXCR4 D262N mutant expressed in COS7 cells coexpressing G protein Gqi4myr assessed as inhibition of CXCL12-induced phosphatidylinositol turnover; format: functional, cell-based; conditions: COS-7
Chain of C-X-C chemokine receptor type 4 (Homo sapiens), P61073 [D262N] (P61073 whole entry D262N): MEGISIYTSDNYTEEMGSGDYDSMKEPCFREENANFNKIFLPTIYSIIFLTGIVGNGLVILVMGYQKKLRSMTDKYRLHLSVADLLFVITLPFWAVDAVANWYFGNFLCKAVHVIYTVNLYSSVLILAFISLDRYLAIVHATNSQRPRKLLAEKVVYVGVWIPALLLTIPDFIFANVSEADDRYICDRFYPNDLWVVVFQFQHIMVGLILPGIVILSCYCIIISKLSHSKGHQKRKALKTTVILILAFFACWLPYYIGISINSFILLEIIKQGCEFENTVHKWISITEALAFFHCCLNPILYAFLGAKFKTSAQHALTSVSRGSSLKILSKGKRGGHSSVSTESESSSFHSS

[6] = target: C-X-C chemokine receptor type 4 (Homo sapiens, UniProt P61073, D262N); assay: as §3; format: functional, cell-based, COS-7
Chain of C-X-C chemokine receptor type 4 (Homo sapiens, UniProt P61073, D262N) (P61073 whole entry D262N): as above

[7] = target: C-X-C chemokine receptor type 4 (Homo sapiens, UniProt P61073, I284A); assay: (§4) Antagonist activity at human CXCR4 I284A mutant expressed in COS7 cells coexpressing G protein Gqi4myr assessed as inhibition of CXCL12-induced phosphatidylinositol turnover; format: functional, cell-based, COS-7
[8] = test system: C-X-C chemokine receptor type 4 (Homo sapiens), P61073 [I284A]; assay: as §4; format: functional, cell-based; conditions: COS-7
[9] = target: C-X-C chemokine receptor type 4 (Homo sapiens, UniProt P61073, H203A); assay: (§5) Antagonist activity at human CXCR4 H203A mutant expressed in COS7 cells coexpressing G protein Gqi4myr assessed as inhibition of CXCL12-induced phosphatidylinositol turnover; format: functional, cell-based, COS-7
[10] = test system: C-X-C chemokine receptor type 4 (Homo sapiens), P61073 [H203A]; assay: as §5; format: functional, cell-based; conditions: COS-7
[11] = target: C-X-C chemokine receptor type 4 (Homo sapiens, UniProt P61073, F172A); assay: (§6) Antagonist activity at human CXCR4 F172A mutant expressed in COS7 cells coexpressing G protein Gqi4myr assessed as inhibition of CXCL12-induced phosphatidylinositol turnover; format: functional, cell-based, COS-7
Chain of C-X-C chemokine receptor type 4 (Homo sapiens, UniProt P61073, F172A) (P61073 whole entry F172A): as the sequence (P61073 whole entry D262N) above, with F172A, N262D counted along it

[12] = test system: C-X-C chemokine receptor type 4 (Homo sapiens), P61073 [F172A]; assay: as §6; format: functional, cell-based; conditions: COS-7
Chain of C-X-C chemokine receptor type 4 (Homo sapiens), P61073 [F172A] (P61073 whole entry F172A): as the sequence (P61073 whole entry D262N) above, with F172A, N262D counted along it

[13] = test system: C-X-C chemokine receptor type 4 (Homo sapiens), P61073 [T287A]; assay: (§7) Antagonist activity at human CXCR4 T287A mutant expressed in COS7 cells coexpressing G protein Gqi4myr assessed as inhibition of CXCL12-induced phosphatidylinositol turnover; format: functional, cell-based; conditions: COS-7
[14] = target: C-X-C chemokine receptor type 4 (Homo sapiens, UniProt P61073, T287A); assay: as §7; format: functional, cell-based, COS-7
[15] = target: C-X-C chemokine receptor type 4 (Homo sapiens, UniProt P61073); assay: Antagonist activity at human wild type CXCR4 expressed in COS7 cells coexpressing G protein Gqi4myr assessed as inhibition of CXCL12-induced phosphatidylinositol turnover; format: functional, cell-based, COS-7
Chain of C-X-C chemokine receptor type 4 (Homo sapiens, UniProt P61073) (P61073 whole entry): as the sequence (P61073 whole entry D262N) above, with N262D counted along it

[16] = test system: C-X-C chemokine receptor type 4 (Homo sapiens), P61073 [I259W]; assay: (§8) Antagonist activity at human CXCR4 I259W mutant expressed in COS7 cells coexpressing G protein Gqi4myr assessed as inhibition of CXCL12-induced phosphatidylinositol turnover; format: functional, cell-based; conditions: COS-7
[17] = target: C-X-C chemokine receptor type 4 (Homo sapiens, UniProt P61073, I259W); assay: as §8; format: functional, cell-based, COS-7
[18] = test system: C-X-C chemokine receptor type 4 (Homo sapiens), P61073 [I259A]; assay: (§9) Antagonist activity at transmembrane domain 6 of human CXCR4 I259A mutant expressed in COS7 cells coexpressing G protein Gqi4myr assessed as inhibition of CXCL12-induced phosphatidylinositol turnover; format: functional, cell-based; conditions: COS-7
Chain of C-X-C chemokine receptor type 4 (Homo sapiens), P61073 [I259A] (P61073 whole entry I259A, the tested form may be a part): as the sequence (P61073 whole entry D262N) above, with I259A, N262D counted along it

[19] = target: C-X-C chemokine receptor type 4 (Homo sapiens, UniProt P61073, I259A); assay: as §9; format: functional, cell-based, COS-7
Chain of C-X-C chemokine receptor type 4 (Homo sapiens, UniProt P61073, I259A) (P61073 whole entry I259A): as the sequence (P61073 whole entry D262N) above, with I259A, N262D counted along it

[20] = test system: C-X-C chemokine receptor type 4 (Homo sapiens), P61073 [Y255A]; assay: (§10) Antagonist activity at human CXCR4 Y255A mutant expressed in COS7 cells coexpressing G protein Gqi4myr assessed as inhibition of CXCL12-induced phosphatidylinositol turnover; format: functional, cell-based; conditions: COS-7
[21] = target: C-X-C chemokine receptor type 4 (Homo sapiens, UniProt P61073, Y255A); assay: as §10; format: functional, cell-based, COS-7
[22] = target: C-X-C chemokine receptor type 4 (Homo sapiens, UniProt P61073, V196A); assay: (§11) Antagonist activity at human CXCR4 V196A mutant expressed in COS7 cells coexpressing G protein Gqi4myr assessed as inhibition of CXCL12-induced phosphatidylinositol turnover; format: functional, cell-based, COS-7
[23] = test system: C-X-C chemokine receptor type 4 (Homo sapiens), P61073 [V196A]; assay: as §11; format: functional, cell-based; conditions: COS-7
[24] = target: C-X-C chemokine receptor type 4 (Homo sapiens, UniProt P61073, Q200W); assay: (§12) Antagonist activity at human CXCR4 Q200W mutant expressed in COS7 cells coexpressing G protein Gqi4myr assessed as inhibition of CXCL12-induced phosphatidylinositol turnover; format: functional, cell-based, COS-7
[25] = test system: C-X-C chemokine receptor type 4 (Homo sapiens), P61073 [Q200W]; assay: as §12; format: functional, cell-based; conditions: COS-7
[26] = test system: C-X-C chemokine receptor type 4 (Homo sapiens), P61073 [E288A]; assay: (§13) Antagonist activity at human CXCR4 E288A mutant expressed in COS7 cells coexpressing G protein Gqi4myr assessed as inhibition of CXCL12-induced phosphatidylinositol turnover; format: functional, cell-based; conditions: COS-7
Chain of C-X-C chemokine receptor type 4 (Homo sapiens), P61073 [E288A] (P61073 whole entry E288A): as the sequence (P61073 whole entry D262N) above, with N262D, E288A counted along it

[27] = target: C-X-C chemokine receptor type 4 (Homo sapiens, UniProt P61073, E288A); assay: as §13; format: functional, cell-based, COS-7
Chain of C-X-C chemokine receptor type 4 (Homo sapiens, UniProt P61073, E288A) (P61073 whole entry E288A): as the sequence (P61073 whole entry D262N) above, with N262D, E288A counted along it

[28] = test system: C-X-C chemokine receptor type 4 (Homo sapiens), P61073 [H281A]; assay: (§14) Antagonist activity at human CXCR4 H281A mutant expressed in COS7 cells coexpressing G protein Gqi4myr assessed as inhibition of CXCL12-induced phosphatidylinositol turnover; format: functional, cell-based; conditions: COS-7
[29] = target: C-X-C chemokine receptor type 4 (Homo sapiens, UniProt P61073, H281A); assay: as §14; format: functional, cell-based, COS-7
[30] = test system: C-X-C chemokine receptor type 4 (Homo sapiens), P61073 [Q200A]; assay: (§15) Antagonist activity at human CXCR4 Q200A mutant expressed in COS7 cells coexpressing G protein Gqi4myr assessed as inhibition of CXCL12-induced phosphatidylinositol turnover; format: functional, cell-based; conditions: COS-7
[31] = target: C-X-C chemokine receptor type 4 (Homo sapiens, UniProt P61073, Q200A); assay: as §15; format: functional, cell-based, COS-7
[32] = target: C-X-C chemokine receptor type 4 (Homo sapiens, UniProt P61073, L120F); assay: (§16) Antagonist activity at human CXCR4 L120F mutant expressed in COS7 cells coexpressing G protein Gqi4myr assessed as inhibition of CXCL12-induced phosphatidylinositol turnover; format: functional, cell-based, COS-7
Chain of C-X-C chemokine receptor type 4 (Homo sapiens, UniProt P61073, L120F) (P61073 whole entry L120F): as the sequence (P61073 whole entry D262N) above, with L120F, N262D counted along it

[33] = test system: C-X-C chemokine receptor type 4 (Homo sapiens), P61073 [L120F]; assay: as §16; format: functional, cell-based; conditions: COS-7
Chain of C-X-C chemokine receptor type 4 (Homo sapiens), P61073 [L120F] (P61073 whole entry L120F): as the sequence (P61073 whole entry D262N) above, with L120F, N262D counted along it

[34] = target: C-X-C chemokine receptor type 4 (Homo sapiens, UniProt P61073, H113A); assay: (§17) Antagonist activity at human CXCR4 H113A mutant expressed in COS7 cells coexpressing G protein Gqi4myr assessed as inhibition of CXCL12-induced phosphatidylinositol turnover; format: functional, cell-based, COS-7
Chain of C-X-C chemokine receptor type 4 (Homo sapiens, UniProt P61073, H113A) (P61073 whole entry H113A): as the sequence (P61073 whole entry D262N) above, with H113A, N262D counted along it

[35] = test system: C-X-C chemokine receptor type 4 (Homo sapiens), P61073 [H113A]; assay: as §17; format: functional, cell-based; conditions: COS-7
Chain of C-X-C chemokine receptor type 4 (Homo sapiens), P61073 [H113A] (P61073 whole entry H113A): as the sequence (P61073 whole entry D262N) above, with H113A, N262D counted along it

SMILES: c1ccc(CNCc2ccc(CN3CCCNCCNCCCNCC3)cc2)cc1
- logIC50 [1]: -3.89
- Ki [2]: 128 µM
- Ki [3]: 14 µM
- logIC50 [4]: -4.85
- logIC50 [5]: -5.64
- Ki [6]: 2300 nM
- Ki [7]: 420 nM
- logIC50 [8]: -6.38
- Ki [9]: 7.2 µM
- logIC50 [10]: -5.14
- Ki [11]: 170 nM
- logIC50 [12]: -5.92
- logIC50 [13]: -6.46
- Ki [14]: 340 nM
- Ki [15]: 1700 nM
- logIC50 ([15]; COS-7): -5.76
- logIC50 [16]: -5.5
- Ki [17]: 3.1 µM
- logIC50 [18]: -6.04
- Ki [19]: 910 nM
- logIC50 [20]: -5.05
- Ki [21]: 8.8 µM
- Ki [22]: 1300 nM
- logIC50 [23]: -5.88
- Ki [24]: 7.2 µM
- logIC50 [25]: -5.14
- logIC50 [26]: -4.96
- Ki [27]: 11 µM
- logIC50 [28]: -5.75
- Ki [29]: 1800 nM
- logIC50 [30]: -4.91
- Ki [31]: 12 µM
- Ki [32]: 440 nM
- logIC50 [33]: -6.36
- Ki [34]: 18 µM
- logIC50 [35]: -4.74
